Data: US20110269799A1 (priority 2008, published 2011)
Like-named read-outs stand apart in the source and are kept apart here.

Experiments:
AF patients [1] = details: ACTIVE W; cited from earlier work
AF patients [2] = details: SPORTIF III, cited from earlier work
[3] = tested on: patients with atrial fibrillation at risk of stroke; details: warfarin INR 2.0-3.0
From the text: Median follow-up was 2.0 years and the primary outcome was stroke or systemic embolism.
Patients were recruited from 951 clinical centers in 44 countries. In brief, patients were eligible if they had atrial fibrillation documented on electrocardiogram at screening or within 6 months; and at least one of the following: prior stroke or transient ischemic attack; left ventricular ejection fraction less than 40%; New York Heart Association heart failure symptoms of Class 2 or greater within 6 months; age at least 75 years; or age at least 65 years with diabetes mellitus, hypertension or coronary artery disease.
The time in therapeutic range was calculated by the method of Rosendaal (Rosendaal F R, et al., A method to determine the optimal intensity of oral anticoagulant therapy, Thromb Haemost, 1993, 69:236-239), excluding INRs from the first week and after discontinuations. […] Concomitant use of aspirin (less than 100 mg/day) or other antiplatelet agents was allowed.
Liver function testing was performed monthly during the first year of follow-up.
The primary study outcome was stroke or systemic embolism. The primary safety outcome was major hemorrhage. Secondary outcomes were stroke, systemic embolism and death. Other outcomes were myocardial infarction, pulmonary embolism, transient ischemic attacks, and hospitalizations. The primary net benefit-risk outcome was the composite of stroke, systemic embolism, pulmonary embolism, myocardial infarction, death or major hemorrhage. Stroke was defined as sudden onset of focal neurological deficit consistent with the territory of a major cerebral artery and categorized as ischemic, hemorrhagic or unspecified. Hemorrhagic transformation of ischemic stroke was not considered as hemorrhagic stroke. Intracranial hemorrhage included hemorrhagic stroke and sub-dural or sub-arachnoid hemorrhage. Systemic embolism was an acute vascular occlusion of an extremity or organ documented by imaging, surgery or autopsy. Major bleeding was defined as a reduction in hemoglobin level of at least […] or transfusion of at least 2 units of blood or symptomatic bleeding in a critical area or organ. Life-threatening bleeding was a subset of major bleeding that included fatal bleeding, symptomatic intracranial bleeding, bleeding with hemoglobin decrease of more than […] or requiring transfusion of more than 4 units of blood or requiring inotropic agents or necessitating surgery. All other bleeding was considered minor.
All primary and secondary outcome events were blindly and doubly adjudicated. An international team of adjudicators reviewed documents in local languages after blinding; or documents were translated by a independent group and blinded centrally. All transient ischemic attacks were reviewed to ensure that strokes had not been missed. To detect possible unreported events, symptom questionnaires were regularly administered to patients, and adverse events and hospitalization reports were scrutinized for unreported primary or secondary outcomes.
If maximum of the two p-values was greater than 0.025, the minimum of the two p-values must be less than 0.0125, one-sided, to claim statistical significance. All analyses were based on intention-to-treat.

[4] = tested on: patients who have nonvalvular atrial fibrillation; details: meta-analysis; cited from earlier work
AF patients [5] = details: SPORTIF V, cited from earlier work

In the case of `CC(=O)CC(c1ccccc1)c1c(O)c2ccccc2oc1=O` (racemic) [Warfarin, 3-(α-acetonylbenzyl)-4-hydroxycoumarin], the “Myocardial Infarction” value (AF patients [1]) is given as 0.6% (warfarin), the “Stroke and systemic embolism (per 100 patient years)” value (AF patients [1]) is given as 1.5% (warfarin) and the “Myocardial Infarction” value (AF patients [2]) is given as 0.6% (warfarin). The “Stroke and systemic embolism (per 100 patient years)” value (AF patients [2]; ximelagatran 36 mg b.i.d.) was 2.3% (warfarin), the “ALT or AST > 3xULN” value [3] was “(2.1) %” and the “ALT or AST > 3xULN with concurrent bilirubin > 2xULN” value [3] was “(0.4) %”. For the same compound, the “Adverse Event: Arthralgia” value [3] was “(5.5) %”, the “Adverse Event: Atrial fibrillation” value [3] was “(5.4) %” and the “Adverse Event: Back pain” value [3] was “(5.5) %”. The “Adverse Event: Chest pain” value [3] was “(5.7) %”, the “Adverse Event: Cough” value [3] was “(5.8) %” and the “Adverse Event: Diarrhea” value [3] was “(5.5) %”. For the same compound, the “Adverse Event: Dizziness” value [3] was “(9.3) %”, the “Adverse Event: Dyspepsia” value [3] was “(1.4) %” and the “Adverse Event: Dyspnoea” value [3] was “(9.2) %”. For the same compound, the “Adverse Event: Fatigue” value [3] was “(5.9) %”, the “Adverse Event: Nasopharyngitis” value [3] was “(5.5) %” and the “Adverse Event: Peripheral edema” value [3] was “(7.6) %”. For the same compound, the “Adverse Event: Upper respiratory tract infection” value [3] was “(5.0) %”, the “Adverse Event: Urinary tract infection” value [3] was “(5.3) %” and the “Major Bleeding, Life threatening, Rate” value [3] was 1.80 /100 Person Years. The “Major Bleeding, Other Major, Rate” value [3] was 1.80 /100 Person Years, the “Pulmonary embolism, Rate” value [3] was 0.09 /100 Person Years and the “Rate of discontinuation at 2.5 years” value [3] was 19%. The “Rate of hemorrhagic stroke” value [3] was 0.38 % per year, the “Rate of myocardial infarction” value [3] was 0.54 % per year and the “Rate of primary outcome, stroke or systemic embolism” value [3] was 1.70 % per year. The “Reason for discontinuation: Gastrointestinal bleeding” value [3] was “(0.9) %”, the “Reason for discontinuation: Gastrointestinal disorders (including pain, vomiting and diarrhea)” value [3] was “(0.8) %” and the “Reason for discontinuation: Outcome event” value [3] was “(2.2) %”. For the same compound, the “Reason for discontinuation: Patient decision” value [3] was “(6.2) %”, the “Reason for discontinuation: SAE” value [3] was “(1.6) %” and the “Stroke, systemic embolism, pulmonary embolism, myocardial infarction death or major bleed (net benefit), Rate” value [3] was 7.99 /100 Person Years. The “Study Drug Discontinuation at one year” value [3] was “(10) %”, the “Study Drug Discontinuation at two years” value [3] was “(19) %” and the “hepatobiliary disorders (AE)” value [3] was “(2.2) %”. The “hepatobiliary disorders (SAE)” value [3] was “(0.4) %”, the “Study Drug Discontinuation at one year” value ([3]; listed as warfarin) was 10% and the “Reduction of the risk of stroke compared to control” value [4] was 64%. For the same compound, the “Myocardial Infarction” value (AF patients [5]) was 1.4% (warfarin) and the “Stroke and systemic embolism (per 100 patient years)” value (AF patients [5]; ximelagatran 36 mg b.i.d.) was 1.2% (warfarin).
